Experimental data from patent US5563140A, “Use of 1-(aminoalkyl)-3-(benzyl)-quinoxaline-2-one derivatives for the preparation of neuroprotective compositions” (Phafag Aktiengesellschaft, priority 1991, dated 1996).

Tests used:
glutamate receptors = assay: Microiontophoresis at inner hair cell synapse of guinea pig cochlea: glutamate-induced spike activity; format: in vivo, guinea pigs
Experimental: The effectiveness of the 1-(aminoalkyl)-3-(benzyl)-quinoxaline-2-one derivatives as potential glutamate receptor antagonists was studied in the light of the neurotransmission between the inner hair cells (IHC) and the peripheral dendrites of the afferent neurons in the mammalian cochlea.
(§1) Experiments were performed on adult pigmented guinea pigs (300-700 g) of both sexes, anaesthetized with a combination of Rompun (Bayer, Leverkusen, Germany) and Innovar-Vet (Pitman-Moore, Mundelin, Ill., U.S.A.). Supplementary low doses of pentobarbital (Nembutal, Abbott, Chicago, U.S.A.) were given periodically throughout the experiments. Rectal temperature was maintained within physiological limits. After tracheotomy for artificial respiration, the auditory bulla was approached ventrolaterally and the cochlea was exposed. A small opening was drilled into the cochlea bone over the pigmented stria vascularis and the ligamentum spiale of the third turn.
(§2) The occurrence of phasic activity was used to identify the location precisely, since such activity occurs in the immediate vicinity of the initial postsynaptic structures.
Recordings of extracellular action potentials were obtained using a 2M NaCl-filled barrel of the 5-barrel glass micropipette. […]

[1] = tested on: membrane response to acetylcholine; assay: Microiontophoresis at inner hair cell synapse of guinea pig cochlea: acetylcholine-induced firing (selectivity); format: in vivo, guinea pigs; settings: acetylcholine 60 nA; Caroverine 30 nA, FIG. 3
Experimental: as §1, §2
Recordings of extracellular action potentials were obtained using a 2M NaCl-filled barrel of the 5-barrel glass micropipette. […] Three other channels of the micropipette contained the solutions to be ejected microiontophoretically with the appropriate anionic and cationic currents: L-glutamic acid (0.5M, pH 3.5, adjusted with HCl); Caroverine-HCl (1-diethylaminoethyl-3-(p-methoxybenzyl)-1,2-dihydro-quinoxaline-2-one, 0.05M, natural pH=6.0). […]

central nervous system = assay: Double-blind, placebo-controlled clinical study, EEG-mapping; format: in vivo, persons; settings: 40 mg or 80 mg, orally or intravenously
Experimental: In a double-blind, placebo-controlled clinical study on a group of 15 persons, the cerebral effect of Caroverine was tested by means of electro-encephalogram (EEG)-mapping. The 15 caucasian probands were 7 females and 8 males between 20 and 35 years old (average 27 years). The weight ranged between 53 and 84 kg (average weight: 69 kg) and the height varied between 162 to 186 cm (average height: 175 cm).
Doses of 40 mg or 80 mg of Caroverine or placebo were administered either orally or intravenously for random sampling to the persons in weekly intervals. EEG-tracings as well as recordings of pulse, blood pressure and side effects were carried out 0, 1, 2, 4, 6 and 8 hours after medication.

[2] = Side-effects on application, also in high doses; format: in vivo; settings: Caroverine and its salts
Description: Thus, it is experimentally established that 1-(aminoalkyl)-3-(benzyl)-quinoxaline-2-one derivatives are a potent, reversible and selective class of new glutamate receptor antagonists on the excitatory […] synapses of the cochlear inner hair cells.

tinnitus = assay: Pilot clinical study in patients suffering from tinnitus; format: in vivo; settings: 70-160 mg
Experimental: The neuroprotective effect of Caroverine was tested in a clinical study with patients who suffered from tinnitus. The etiology of tinnitus can be very different in different patients. One of the most frequent tinnitus type is, however, the cochlear tinnitus. If a functional disturbance between the IHC and the peripheral dendrites of the […] neurons is deemed to be the initiating, etiological factor, then this is called a "cochlear synaptic tinnitus". A neuroprotective pharmaceutical like Caroverine should therefore have a positive effect on the cochlear synaptic tinnitus.
In a pilot study Caroverine was applied to 72 patients suffering from tinnitus. Caroverine was applied intravenously (160 mg/100 ml physiological NaCl-solution). The real dosage depended on the tinnitus reduction perceived by the individual patient and varied between 70 and 160 mg.
The effectiveness of Caroverine was measured by a subjective rating and tinnitus-matching before and after the infusion of the drug.

CCN(CC)CCn1c(=O)c(Cc2ccc(O)cc2)nc2ccccc21 [1-diethylaminoethyl-3-(p-hydroxy)-1,2-dihydroquinoxaline-2-one]
effectiveness as glutamate receptor antagonist (glutamate receptors; cochlear inner hair cell synapses): effective

CCN(CC)CCn1c(=O)c(Cc2ccc(OC)cc2)nc2ccccc21 [Caroverine]
effect on acetylcholine-induced firing rate [1]: no effect | time of maximum effect after medication (central nervous system): around 1 hour | side-effects [2]: no critical side-effects | patients noting a tinnitus reduction of at least 50% in absolute value (tinnitus; immediately after intravenous infusion, 72 patients): 66.7% | side-effects (tinnitus; intravenous infusion): No sincere side-effects

N[C@@H](CCC(=O)O)C(=O)O [Glutamate, L-glutamic acid]
effect on firing rate of fibers in the synaptic region of IHC (glutamate receptors; agonist alone, n=29 out of 31 fibers): enhances the firing rate
